Test results as given in ChEMBL document CHEMBL3045858, “Weed control and sesame (Sesamum indicum L.) response to preplant incorporated herbicides and method of incorporation” (Crop Prot, 2007).

Experiments:
Urochloa platyphylla [1] = assay: Herbicidal activity against Urochloa platyphylla at 1.68 kg/ha applied using mixing wheel cultivator; assay type: functional
Sesamum indicum [2] = assay: Phytotoxicity against Sesamum indicum (sesame) plant assessed as yield at 0.84 kg/ha applied using mixing wheel cultivator (reference value: 333 kg/ha); assay type: organism-based; conditions: in vivo, other
Urochloa platyphylla [3] = assay: Herbicidal activity against Urochloa platyphylla at 0.42 kg/ha applied using mixing wheel cultivator; assay type: functional
Sesamum indicum [4] = assay: Phytotoxicity against Sesamum indicum (sesame) plant assessed as stunt in growth at 0.84 kg/ha applied using mixing wheel cultivator (reference value: 0%); assay type: organism-based; conditions: in vivo, other
Sesamum indicum [5] = assay: Phytotoxicity against Sesamum indicum (sesame) plant assessed as stunt in growth at 1.68 kg/ha applied using mixing wheel cultivator (reference value: 0%); assay type: organism-based; conditions: in vivo, other
Sesamum indicum [6] = assay: Phytotoxicity against Sesamum indicum (sesame) plant assessed as stunt in growth at 0.42 kg/ha applied using mixing wheel cultivator (reference value: 0%); assay type: organism-based; conditions: in vivo, other
Amaranthus tuberculatus [7] = assay: Herbicidal activity against Amaranthus tuberculatus at 0.84 kg/ha applied using mixing wheel cultivator; assay type: functional
Sesamum indicum [8] = assay: Phytotoxicity against Sesamum indicum (sesame) plant assessed as yield at 1.68 kg/ha applied using mixing wheel cultivator (reference value: 333 kg/ha); assay type: organism-based; conditions: in vivo, other
Sesamum indicum [9] = assay: Phytotoxicity against Sesamum indicum (sesame) plant assessed as sesame stand at 0.84 kg/ha applied using mixing wheel cultivator relative to control; assay type: organism-based; conditions: in vivo, other
Amaranthus tuberculatus [10] = assay: Herbicidal activity against Amaranthus tuberculatus at 0.42 kg/ha applied using mixing wheel cultivator; assay type: functional
Sesamum indicum [11] = assay: Phytotoxicity against Sesamum indicum (sesame) plant assessed as sesame stand at 0.42 kg/ha applied using mixing wheel cultivator relative to control; assay type: organism-based; conditions: in vivo, other
Sesamum indicum [12] = assay: Phytotoxicity against Sesamum indicum (sesame) plant assessed as yield at 0.42 kg/ha applied using mixing wheel cultivator (reference value: 333 kg/ha); assay type: organism-based; conditions: in vivo, other
Sesamum indicum [13] = assay: Phytotoxicity against Sesamum indicum (sesame) plant assessed as sesame stand at 1.68 kg/ha applied using mixing wheel cultivator relative to control; assay type: organism-based; conditions: in vivo, other
Urochloa platyphylla [14] = assay: Herbicidal activity against Urochloa platyphylla at 0.84 kg/ha applied using mixing wheel cultivator; assay type: functional
Amaranthus tuberculatus [15] = assay: Herbicidal activity against Amaranthus tuberculatus at 1.68 kg/ha applied using mixing wheel cultivator; assay type: functional
Sesamum indicum [16] = assay: Phytotoxicity against Sesamum indicum (sesame) plant assessed as yield at 1.4 kg/ha formulated as prowl H2O applied using mixing wheel cultivator (reference value: 333 kg/ha); assay type: organism-based; conditions: in vivo, other
Sesamum indicum [17] = assay: Phytotoxicity against Sesamum indicum (sesame) plant assessed as yield at 1.12 kg/ha formulated as prowl H2O applied using mixing wheel cultivator (reference value: 333 kg/ha); assay type: organism-based; conditions: in vivo, other
Sesamum indicum [18] = assay: Phytotoxicity against Sesamum indicum (sesame) plant assessed as yield at 2.24 kg/ha formulated as prowl EC applied using mixing wheel cultivator (reference value: 333 kg/ha); assay type: organism-based; conditions: in vivo, other
Sesamum indicum [19] = assay: Phytotoxicity against Sesamum indicum (sesame) plant assessed as sesame stand at 1.12 kg/ha formulated as prowl H2O applied using mixing wheel cultivator relative to control; assay type: organism-based; conditions: in vivo, other
Sesamum indicum [20] = assay: Phytotoxicity against Sesamum indicum (sesame) plant assessed as yield at 0.84 kg/ha formulated as prowl H2O applied using mixing wheel cultivator (reference value: 333 kg/ha); assay type: organism-based; conditions: in vivo, other
Urochloa platyphylla [21] = assay: Herbicidal activity against Urochloa platyphylla at 1.4 kg/ha formulated as prowl H2O applied using mixing wheel cultivator; assay type: functional
Amaranthus tuberculatus [22] = assay: Herbicidal activity against Amaranthus tuberculatus at 1.12 kg/ha formulated as prowl EC applied using mixing wheel cultivator; assay type: functional
Sesamum indicum [23] = assay: Phytotoxicity against Sesamum indicum (sesame) plant assessed as sesame stand at 0.56 kg/ha formulated as prowl EC applied using mixing wheel cultivator relative to control; assay type: organism-based; conditions: in vivo, other
Sesamum indicum [24] = assay: Phytotoxicity against Sesamum indicum (sesame) plant assessed as sesame stand at 0.84 kg/ha formulated as prowl H2O applied using mixing wheel cultivator relative to control; assay type: organism-based; conditions: in vivo, other
Sesamum indicum [25] = assay: Phytotoxicity against Sesamum indicum (sesame) plant assessed as stunt in growth at 0.56 kg/ha formulated as prowl EC applied using mixing wheel cultivator (reference value: 0%); assay type: organism-based; conditions: in vivo, other
Sesamum indicum [26] = assay: Phytotoxicity against Sesamum indicum (sesame) plant assessed as yield at 1.12 kg/ha formulated as prowl EC applied using mixing wheel cultivator (reference value: 333 kg/ha); assay type: organism-based; conditions: in vivo, other
Sesamum indicum [27] = assay: Phytotoxicity against Sesamum indicum (sesame) plant assessed as yield at 0.56 kg/ha formulated as prowl EC applied using mixing wheel cultivator (reference value: 333 kg/ha); assay type: organism-based; conditions: in vivo, other
Urochloa platyphylla [28] = assay: Herbicidal activity against Urochloa platyphylla at 0.84 kg/ha formulated as prowl H2O applied using mixing wheel cultivator; assay type: functional
Sesamum indicum [29] = assay: Phytotoxicity against Sesamum indicum (sesame) plant assessed as stunt in growth at 1.12 kg/ha formulated as prowl EC applied using mixing wheel cultivator (reference value: 0%); assay type: organism-based; conditions: in vivo, other
Urochloa platyphylla [30] = assay: Herbicidal activity against Urochloa platyphylla at 1.12 kg/ha formulated as prowl EC applied using mixing wheel cultivator; assay type: functional
Urochloa platyphylla [31] = assay: Herbicidal activity against Urochloa platyphylla at 0.56 kg/ha formulated as prowl EC applied using mixing wheel cultivator; assay type: functional
Sesamum indicum [32] = assay: Phytotoxicity against Sesamum indicum (sesame) plant assessed as stunt in growth at 1.4 kg/ha formulated as prowl H2O applied using mixing wheel cultivator (reference value: 0%); assay type: organism-based; conditions: in vivo, other
Amaranthus tuberculatus [33] = assay: Herbicidal activity against Amaranthus tuberculatus at 1.12 kg/ha formulated as prowl H2O applied using mixing wheel cultivator; assay type: functional
Sesamum indicum [34] = assay: Phytotoxicity against Sesamum indicum (sesame) plant assessed as sesame stand at 2.24 kg/ha formulated as prowl EC applied using mixing wheel cultivator relative to control; assay type: organism-based; conditions: in vivo
Urochloa platyphylla [35] = assay: Herbicidal activity against Urochloa platyphylla at 1.12 kg/ha formulated as prowl H2O applied using mixing wheel cultivator; assay type: functional
Urochloa platyphylla [36] = assay: Herbicidal activity against Urochloa platyphylla at 2.24 kg/ha formulated as prowl EC applied using mixing wheel cultivator; assay type: functional
Sesamum indicum [37] = assay: Phytotoxicity against Sesamum indicum (sesame) plant assessed as stunt in growth at 0.84 kg/ha formulated as prowl H2O applied using mixing wheel cultivator (reference value: 0%); assay type: organism-based; conditions: in vivo, other
Sesamum indicum [38] = assay: Phytotoxicity against Sesamum indicum (sesame) plant assessed as Sesame stand at 1.4 kg/ha formulated as prowl H2O applied using mixing wheel cultivator relative to control; assay type: organism-based; conditions: in vivo, other
Amaranthus tuberculatus [39] = assay: Herbicidal activity against Amaranthus tuberculatus at 2.24 kg/ha formulated as prowl EC applied using mixing wheel cultivator; assay type: functional
Amaranthus tuberculatus [40] = assay: Herbicidal activity against Amaranthus tuberculatus at 0.84 kg/ha formulated as prowl H2O applied using mixing wheel cultivator; assay type: functional
Sesamum indicum [41] = assay: Phytotoxicity against Sesamum indicum (sesame) plant assessed as sesame stand at 1.12 kg/ha formulated as prowl EC applied using mixing wheel cultivator relative to control; assay type: organism-based; conditions: in vivo, other
Amaranthus tuberculatus [42] = assay: Herbicidal activity against Amaranthus tuberculatus at 0.56 kg/ha formulated as prowl EC applied using mixing wheel cultivator; assay type: functional
Sesamum indicum [43] = assay: Phytotoxicity against Sesamum indicum (sesame) plant assessed as stunt in growth at 2.24 kg/ha formulated as prowl EC applied using mixing wheel cultivator (reference value: 0%); assay type: organism-based; conditions: in vivo, other
Amaranthus tuberculatus [44] = assay: Herbicidal activity against Amaranthus tuberculatus at 1.4 kg/ha formulated as prowl H2O applied using mixing wheel cultivator; assay type: functional
Sesamum indicum [45] = assay: Phytotoxicity against Sesamum indicum (sesame) plant assessed as stunt in growth at 1.12 kg/ha formulated as prowl H2O applied using mixing wheel cultivator (reference value: 0%); assay type: organism-based; conditions: in vivo, other

## CCCN(CCC)c1c([N+](=O)[O-])cc(C(F)(F)F)cc1[N+](=O)[O-] [TRIFLURALIN]
Urochloa platyphylla [1]
  Activity: 96%
Sesamum indicum [2]
  Crop_yield: 342 kg/ha
Urochloa platyphylla [3]
  Activity: 86%
Sesamum indicum [4]
  Activity: 2%
Sesamum indicum [5]
  Activity: 4%
Sesamum indicum [6]
  Activity: 0%
Amaranthus tuberculatus [7]
  Activity: 85%
Sesamum indicum [8]
  Crop_yield: 406 kg/ha
Sesamum indicum [9]
  Activity: 76%
Amaranthus tuberculatus [10]
  Activity: 90%
Sesamum indicum [11]
  Activity: 99%
Sesamum indicum [12]
  Crop_yield: 587 kg/ha
Sesamum indicum [13]
  Activity: 67%
Urochloa platyphylla [14]
  Activity: 91%
Amaranthus tuberculatus [15]
  Activity: 92%

## C=C(C)CN(CC)c1c([N+](=O)[O-])cc(C(F)(F)F)cc1[N+](=O)[O-] [ETHALFLURALIN]
Urochloa platyphylla [1]
  Activity: 97%
Sesamum indicum [2]
  Crop_yield: 527 kg/ha
Urochloa platyphylla [3]
  Activity: 69%
Sesamum indicum [4]
  Activity: 2%
Sesamum indicum [5]
  Activity: 4%
Sesamum indicum [6]
  Activity: 4%
Amaranthus tuberculatus [7]
  Activity: 92%
Sesamum indicum [8]
  Crop_yield: 143 kg/ha
Sesamum indicum [9]
  Activity: 78%
Amaranthus tuberculatus [10]
  Activity: 82%
Sesamum indicum [11]
  Activity: 95%
Sesamum indicum [12]
  Crop_yield: 428 kg/ha
Sesamum indicum [13]
  Activity: 52%
Urochloa platyphylla [14]
  Activity: 95%
Amaranthus tuberculatus [15]
  Activity: 93%

## CCC(CC)Nc1c([N+](=O)[O-])cc(C)c(C)c1[N+](=O)[O-] [PENDIMETHALIN]
Sesamum indicum [16]
  Crop_yield: 240 kg/ha
Sesamum indicum [17]
  Crop_yield: 288 kg/ha
Sesamum indicum [18]
  Crop_yield: 233 kg/ha
Sesamum indicum [19]
  Activity: 53%
Sesamum indicum [20]
  Crop_yield: 534 kg/ha
Urochloa platyphylla [21]
  Activity: 73%
Amaranthus tuberculatus [22]
  Activity: 74%
Sesamum indicum [23]
  Activity: 80%
Sesamum indicum [24]
  Activity: 90%
Sesamum indicum [25]
  Activity: 3%
Sesamum indicum [26]
  Crop_yield: 382 kg/ha
Sesamum indicum [27]
  Crop_yield: 367 kg/ha
Urochloa platyphylla [28]
  Activity: 71%
Sesamum indicum [29]
  Activity: 3%
Urochloa platyphylla [30]
  Activity: 83%
Urochloa platyphylla [31]
  Activity: 63%
Sesamum indicum [32]
  Activity: 14%
Amaranthus tuberculatus [33]
  Activity: 84%
Sesamum indicum [34]
  Activity: 27%
Urochloa platyphylla [35]
  Activity: 80%
Urochloa platyphylla [36]
  Activity: 85%
Sesamum indicum [37]
  Activity: 0%
Sesamum indicum [38]
  Activity: 38%
Amaranthus tuberculatus [39]
  Activity: 90%
Amaranthus tuberculatus [40]
  Activity: 96%
Sesamum indicum [41]
  Activity: 55%
Amaranthus tuberculatus [42]
  Activity: 85%
Sesamum indicum [43]
  Activity: 16%
Amaranthus tuberculatus [44]
  Activity: 83%
Sesamum indicum [45]
  Activity: 4%
